Results published in patent publication US4468511A, “C-20- And C-23-Modified macrolide derivatives” (Eli Lilly and Company, priority 1983, dated 1984).
Values after ≈ are worked out from the molar mass of the structure shown. Where two headings read alike, the source gives them in different places.

Columns and labels:
[1] = test system: Pasteurella hemolytica 22C; assay: MIC, conventional broth-dilution microtiter test; assay type: cell-based; details: broth-dilution microtiter; Pasteurella hemolytica 22C; read-out: MIC
Method in brief: (§1)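 Agar plates containing graded compound levels gave the Klebsiella value. Graded broth dilutions in microtiter plates gave the Pasteurella and Mycoplasma values.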

[2] = test system: Pasteurella hemolytica 41D; assay: MIC, conventional broth-dilution microtiter test; assay type: cell-based; details: broth-dilution microtiter; Pasteurella hemolytica 41D; read-out: MIC
Method in brief: as §1

Mycoplasma gallisepticum = assay: MIC, conventional broth-dilution microtiter test; assay type: cell-based; details: Mycoplasmoides gallisepticum
Method in brief: as §1

[3] = test system: Pasteurella multocida 17E; assay: MIC, conventional broth-dilution microtiter test; assay type: cell-based; details: broth-dilution microtiter; Pasteurella multocida 17E, Bovine isolate; read-out: MIC
Method in brief: as §1

[4] = test system: Pasteurella multocida 60A; assay: MIC, conventional broth-dilution microtiter test; assay type: cell-based; details: broth-dilution microtiter; Pasteurella multocida 60A, Avian isolate; read-out: MIC
Method in brief: as §1

[5] = test system: Mycoplasma gallisepticum 41313; assay: MIC, conventional broth-dilution microtiter test; assay type: cell-based; details: Mycoplasmoides gallisepticum; broth-dilution microtiter; Mycoplasma gallisepticum 41313, Resistant strain; read-out: MIC
Method in brief: as §1

Mycoplasma synoviae = assay: MIC, conventional broth-dilution microtiter test; assay type: cell-based; details: Mycoplasmopsis synoviae
Method in brief: (§2)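 Minimum inhibitory concentrations are determined by conventional broth dilution in microtiter wells for Pasteurella and Mycoplasma isolates. For Klebsiella pneumoniae KAE, the standard agar-dilution assay is used.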

[6] = test system: Pasteurella multocida 40G; assay: MIC, conventional broth-dilution microtiter test; assay type: cell-based; details: broth-dilution microtiter; Pasteurella multocida 40G; read-out: MIC
Method in brief: as §1

Mycoplasma hyorhinis = assay: MIC, conventional broth-dilution microtiter test; assay type: cell-based; details: broth-dilution microtiter; Mycoplasma hyorhinis; read-out: MIC
Method in brief: as §2

[7] = test system: Pasteurella multocida 22A; assay: MIC, conventional broth-dilution microtiter test; assay type: cell-based; details: broth-dilution microtiter; Pasteurella multocida 22A; read-out: MIC
Method in brief: as §1

[8] = test system: Mycoplasma gallisepticum 34159; assay: MIC, conventional broth-dilution microtiter test; assay type: cell-based; details: Mycoplasmoides gallisepticum; broth-dilution microtiter; Mycoplasma gallisepticum 34159, Resistant strain; read-out: MIC
Method in brief: as §1

Staphylococcus aureus = assay: MIC, conventional broth-dilution microtiter test; assay type: cell-based; details: broth-dilution microtiter, read-out: MIC
Description: (§3) Certain of the derivatives are active against some gram-negative bacteria, such as Pasteurella species. The MIC's in Table II were determined by standard agar-dilution assays. The MIC's in Table III were obtained using a conventional broth-dilution microtiter test.

[9] = test system: Pasteurella multocida 68C; assay: MIC, conventional broth-dilution microtiter test; assay type: cell-based; details: broth-dilution microtiter; Pasteurella multocida 68C; read-out: MIC
Method in brief: as §1

[10] = test system: Pasteurella hemolytica 23C; assay: MIC, conventional broth-dilution microtiter test; assay type: cell-based; details: broth-dilution microtiter; Pasteurella hemolytica 23C; read-out: MIC
Method in brief: as §1

Streptococcus sp. 80 = assay: MIC, conventional broth-dilution microtiter test; assay type: cell-based; details: broth-dilution microtiter; Streptococcus sp. 80; read-out: MIC
Description: as §3

[11] = test system: Staphylococcus epidermidis EPI1; assay: microbe, parasite or virus in culture; assay type: cell-based; details: agar-dilution; Staphylococcus epidermidis EPI1; read-out: MIC
Description: (§4) The MIC's in Table II were determined by standard agar-dilution assays. The MIC's in Table III were obtained using a conventional broth-dilution microtiter test.

[12] = test system: Staphylococcus aureus S13E; assay: microbe, parasite or virus in culture; assay type: cell-based
Description: as §4

[13] = test system: Staphylococcus aureus X400; assay: MIC, standard agar-dilution assay; assay type: cell-based; details: Staphylococcus aureus, X400
Description: as §4

[14] = test system: Haemophilus influenzae C.L.; assay: MIC, standard agar-dilution assay; assay type: cell-based; details: Haemophilus influenzae
Description: as §4

[15] = test system: Haemophilus influenzae 76; assay: MIC, standard agar-dilution assay; assay type: cell-based; details: Haemophilus influenzae, 76
Description: as §4

[16] = test system: Staphylococcus epidermidis EPI2; assay: MIC, standard agar-dilution assay; assay type: cell-based; details: Staphylococcus epidermidis, EPI2
Description: as §4

[17] = test system: Streptococcus Group D X66; assay: MIC, standard agar-dilution assay; assay type: cell-based; details: agar-dilution; Streptococcus Group D X66; read-out: MIC
Description: as §3

[18] = test system: Klebsiella pneumoniae KAE; assay: MIC, standard agar-dilution assay; assay type: cell-based; details: agar-dilution; Klebsiella pneumoniae KAE; read-out: MIC
Method in brief: as §1

Escherichia coli TEM = assay: MIC, standard agar-dilution assay; assay type: cell-based; details: agar-dilution; Escherichia coli TEM; read-out: MIC
Method in brief: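 Minimum inhibitory concentrations against Escherichia coli were measured with a standard agar-dilution method. The result for each derivative is the lowest concentration that inhibits bacterial growth, given in ug/mL.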

[19] = test system: Klebsiella pneumoniae X26; assay: MIC, standard agar-dilution assay; assay type: cell-based; details: agar-dilution; Klebsiella pneumoniae X26; read-out: MIC
Method in brief: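 The Klebsiella MIC was obtained by agar-dilution assay. Other organisms (Pasteurella hemolytica, Pasteurella multocida, Mycoplasma gallisepticum) were tested by conventional broth microdilution.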

[20] = test system: Staphylococcus aureus X1.1; assay: MIC, standard agar-dilution assay; assay type: cell-based; details: Staphylococcus aureus, X1.1
Method in brief: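 Minimum inhibitory concentration against Staphylococcus aureus strain X1.1 was measured with a standard agar-dilution method. The result is reported as the MIC in ug/mL, i.e. the lowest compound concentration in agar that prevents visible growth of this organism.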

Escherichia coli EC14 = assay: MIC, standard agar-dilution assay; assay type: cell-based; details: agar-dilution; Escherichia coli EC14; read-out: MIC
Description: as §3

[21] = test system: Streptococcus pyogenes C203; assay: MIC, standard agar-dilution assay; assay type: cell-based; details: Streptococcus pyogenes, C203
Description: as §3

[22] = test system: Staphylococcus aureus V41; assay: MIC, standard agar-dilution assay; assay type: cell-based; details: agar-dilution; Staphylococcus aureus V41, Penicillin-resistant strain; read-out: MIC
Description: as §3

[23] = test system: Streptococcus pneumoniae Park I; assay: MIC, standard agar-dilution assay; assay type: cell-based; details: Streptococcus pneumoniae
Description: as §3

[24] = test system: Streptococcus pyogenes 9960; assay: MIC, standard agar-dilution assay; assay type: cell-based; details: 9960
Description: as §3

[25] = test system: Streptococcus pyogenes C203; assay: Protection of mice experimentally infected with S. pyogenes C203; assay type: in vivo
Description: Some of the derivatives of this invention have shown in vivo antimicrobial activity against experimentally-induced infections in laboratory animals. When two doses of test compound were administered to mice experimentally infected with S. pyogenes C203, the activity observed was measured as an ED50 value [effective dose in mg/kg to protect 50% of the test animals: see Warren Wick, et al., J. Bacteriol. 81, 233-235 (1961)].

Compound: CCC1CC(C)C(=O)C=CC(C)=CC(CSc2ccccc2)C(CC)OC(=O)CC(O)C(C)C1OC1OC(C)C(O)C(N(C)C)C1O (stereo not drawn) [Compound 42, 23-Phenylthio-20,23-dideoxy-20-dihydro-OMT]
- MIC [1]: 25 µg/mL (≈ 37 µM)
- MIC [2]: 25 µg/mL (≈ 37 µM)
- MIC (Mycoplasma gallisepticum): 6.25 µg/mL (≈ 9.25 µM)
- MIC [3]: 25 µg/mL (≈ 37 µM)
- MIC [4]: 12.5 µg/mL (≈ 18.5 µM)
- MIC [5]: 25 µg/mL (≈ 37 µM)
- MIC (Mycoplasma synoviae): 6.25 µg/mL (≈ 9.25 µM)
- MIC [6]: 25 µg/mL (≈ 37 µM)
- MIC (Mycoplasma hyorhinis): 25 µg/mL (≈ 37 µM)
- MIC [7]: 25 µg/mL (≈ 37 µM)
- MIC [8]: 25 µg/mL (≈ 37 µM)
- MIC (Staphylococcus aureus): 1.56 µg/mL (≈ 2.31 µM)
- MIC [9]: 25 µg/mL (≈ 37 µM)
- MIC [10]: 25 µg/mL (≈ 37 µM)
- MIC (Streptococcus sp. 80): 1.56 µg/mL (≈ 2.31 µM)
- MIC [11]: 0.5 µg/mL (≈ 0.74 µM)
- MIC [12]: 1 µg/mL (≈ 1.48 µM)
- MIC [13]: 1 µg/mL (≈ 1.48 µM)
- MIC [14]: 16 µg/mL (≈ 23.7 µM)
- MIC [15]: 16 µg/mL (≈ 23.7 µM)
- MIC [16]: 1 µg/mL (≈ 1.48 µM)
- MIC [17]: 0.5 µg/mL (≈ 0.74 µM)
- MIC [18]: > 128 µg/mL
- MIC (Escherichia coli TEM): > 128 µg/mL
- MIC [19]: 16 µg/mL (≈ 23.7 µM)
- MIC [20]: 1 µg/mL (≈ 1.48 µM)
- MIC (Escherichia coli EC14): > 128 µg/mL
- MIC [21]: 1 µg/mL (≈ 1.48 µM)
- MIC [22]: 0.5 µg/mL (≈ 0.74 µM)
- MIC [23]: 0.12 µg/mL (≈ 0.178 µM)
- MIC [24]: 1 µg/mL (≈ 1.48 µM)
- ED50 ([25]; C203, mice, oral, mg/kg × 2, doses given 1 and 4 hours postinfection, read-out: ED50 Oral): 78 mg/kg
- ED50 ([25]; C203, sc, read-out: ED50 Subcutaneous): > 25 mg/kg
